Reference: paper PMC6894869, “Fragment-based design of small molecule PCSK9 inhibitors using simulated annealing of chemical potential simulations” (PLoS ONE, 2019)

Target: PCSK9 (Homo sapiens, UniProt Q8NBP7)
Experiment: SPR competition assay against the EGFa domain of LDLR
Assay type: binding

IC50: 103 µM
SMILES: COc1ccc2nc(N)[nH]c2c1C#N [Fig 12A, cyano-benzimidazole derivative]
